1 compound from patent US20120021434A1, “METHOD FOR TREATING B CELL REGULATED AUTOIMMUNE DISORDERS” (Synta Pharmaceuticals Corp., priority 2005, published 2012) can be followed below.

Common to all, as to format: cell-based
Experiment [1] has as its system NF-κB p50. Put plainly: Kinetics of p50 nuclear translocation in LPS-stimulated THP1 cells (immunoblot, densitometry). To be noted: 100 nM. On the procedure:
Compound 50 impairs nuclear accumulation of c-Rel and slightly reduces nuclear accumulation of p50. We examined the nuclear translocation kinetics of NF-κB family members in LPS stimulated cells treated with Compound 50. THP1 cells were stimulated with LPS in either the presence or absence of 100 nM Compound 50, and the distribution of the NF-κB Rel family members was determined by immunoblotting nuclear (n.p.) extracts collected at 5 min, 15 min, 30 min, 1 h, 3 h and 6 h post-treatment. In response to LPS stimulation, p50 translocated into the nucleus as early as 5 minutes post-stimulation and accumulates as time goes on (FIG. 4, immunoblots and FIG. 5 densitometry). […] The experiment examining p65 nuclear translocation is shown in FIG. 6 (immunoblots) and FIG. 7 (densitometry). In LPS stimulated cells, p65 translocated into the nucleus as early as 5 minutes post-stimulation and accumulated to maximum levels at 15-30 minutes post-stimulation. Treatment of LPS-stimulated cells with Compound 50 had no effect on the kinetics of p65 nuclear entry.
A general note: Immunoblotting shows a protein as a band on a membrane.

Experiment [2] concerns p105/p50. Put plainly: LPS/IFNγ-induced phosphorylation of p105/p50 in THP1 cells (immunoblot). To be noted: THP1, 100 nM, residues Ser-927 and Ser-933. On the procedure:
In this study, we examined the effect of Compound 50 on LPS-induced phosphorylation of the NF-κB members p65 and p105/p50. THP1 monocytic cells were stimulated with IFNγ plus LPS in the presence or absence of 100 nM Compound 50 (30 min, 1 h and 3 h) and whole-cell extracts were immunoblotted using anti-phospho p65 and p105/p50 antibodies to detect the phosphorylated forms of these proteins. […] LPS/IFNγ induced phosphorylation of p65 as early as 30 minutes on residues Ser-276, Ser-468 and […]. Compound 50 had no effect on LPS/IFNγ induced phosphorylation at these sites. […] LPS/IFNγ induced phosphorylation of p105 as early as 30 minutes on residues Ser-927 and Ser-933. Compound 50 had no effect on LPS/IFNγ induced phosphorylation at these sites.

Experiment [3] has as its target T1, c-Rel (Homo sapiens, UniProt Q04864).
T1 construct: a western blot assay of THP1 nuclear c-Rel, p50 and p65 proteins was carried out; endogenous in cells; host or cells: THP-1; Jurkat
T1 sequence (Q04864 1-619): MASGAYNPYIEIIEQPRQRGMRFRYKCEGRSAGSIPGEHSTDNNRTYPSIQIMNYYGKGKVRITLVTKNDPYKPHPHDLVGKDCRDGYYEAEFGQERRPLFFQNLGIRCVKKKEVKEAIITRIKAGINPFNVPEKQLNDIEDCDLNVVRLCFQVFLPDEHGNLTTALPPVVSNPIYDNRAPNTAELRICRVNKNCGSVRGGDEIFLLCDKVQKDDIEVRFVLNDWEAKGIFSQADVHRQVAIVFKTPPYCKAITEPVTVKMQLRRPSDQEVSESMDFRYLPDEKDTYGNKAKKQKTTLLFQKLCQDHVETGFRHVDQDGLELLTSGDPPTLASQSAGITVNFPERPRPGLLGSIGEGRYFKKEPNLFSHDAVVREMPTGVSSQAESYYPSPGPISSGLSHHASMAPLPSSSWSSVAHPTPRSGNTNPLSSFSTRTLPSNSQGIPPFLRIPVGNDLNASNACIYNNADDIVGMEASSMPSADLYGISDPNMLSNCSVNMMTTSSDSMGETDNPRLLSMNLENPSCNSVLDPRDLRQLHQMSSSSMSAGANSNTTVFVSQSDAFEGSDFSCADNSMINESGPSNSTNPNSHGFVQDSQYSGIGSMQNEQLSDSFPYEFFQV
The experiment can be described thus: Nuclear c-Rel in PMA+ionomycin stimulated Jurkat T cells (immunoblot). To be noted: 100 nM. An excerpt:
We therefore examined the accumulation of nuclear c-Rel in these cells by immunoblot analysis.

Experiment [4] deals with T2, c-Rel (Mus musculus, UniProt P15307).
T2 construct: nuclear extracts from RAW cells stimulated with LPS/IFNγ; endogenous in cells; host or cells: RAW264.7
The experiment can be described thus: Immunoblot and densitometry of nuclear c-Rel in LPS/IFNγ-stimulated Raw264.7 cells. To be noted: Raw264.7, LPS/IFNγ, immunoblot densitometry. On the procedure: Methods: 20×10^6 Raw 264.7 cells were treated with either DMSO, LPS/IFNγ, or LPS/IFNγ/Compound 50. (LPS conc. 1 ug/ml f.c.; mouse IFNγ mouse 100 U/ml f.c, Compound 501 uM f.c). (LPS: Sigma Cat # L2654. Mouse IFNγ; Cat # R+D 485-MICF). Cells were pre-treated with Compound 50 for 30 min, then LPS/IFNγ was added. After 3 hrs, nuclear and cytoplasmic extracts were prepared according to the BD™ TransFactor Extraction Kit and user manual. Briefly, cells were washed in PBS, harvested and lysed in hypotonic lysis buffer on ice. Cells were then disrupted by drawing the cell suspension through a No. 27 gauge needle 10 times. Next, the cell suspension was centrifuged, and the cytoplasmic extract (supernatant) was collected. The nuclear pellet was then disrupted by resuspension in high salt extraction buffer and was drawn through the needle 10 times. […]
After treatment with Compound 50, nuclear extract and cytoplasmic extract were prepared from 20×10^6 Raw264.7 cells by using Extraction kits from BD Biosciences (Cat. 631921), and above for experimental details. […] Densitometry analysis was performed using Quantity One software from BioRad.
The reduction in c-RelDNA-binding activity correlated with a 40-50% reduction in the levels of nuclear c-Rel as detected by immunoblot analysis (see immunoblot FIG. 14 and densitometry FIG. 15). […]

The structures appear in SMILES notation.

T2 sequence (P15307 whole entry): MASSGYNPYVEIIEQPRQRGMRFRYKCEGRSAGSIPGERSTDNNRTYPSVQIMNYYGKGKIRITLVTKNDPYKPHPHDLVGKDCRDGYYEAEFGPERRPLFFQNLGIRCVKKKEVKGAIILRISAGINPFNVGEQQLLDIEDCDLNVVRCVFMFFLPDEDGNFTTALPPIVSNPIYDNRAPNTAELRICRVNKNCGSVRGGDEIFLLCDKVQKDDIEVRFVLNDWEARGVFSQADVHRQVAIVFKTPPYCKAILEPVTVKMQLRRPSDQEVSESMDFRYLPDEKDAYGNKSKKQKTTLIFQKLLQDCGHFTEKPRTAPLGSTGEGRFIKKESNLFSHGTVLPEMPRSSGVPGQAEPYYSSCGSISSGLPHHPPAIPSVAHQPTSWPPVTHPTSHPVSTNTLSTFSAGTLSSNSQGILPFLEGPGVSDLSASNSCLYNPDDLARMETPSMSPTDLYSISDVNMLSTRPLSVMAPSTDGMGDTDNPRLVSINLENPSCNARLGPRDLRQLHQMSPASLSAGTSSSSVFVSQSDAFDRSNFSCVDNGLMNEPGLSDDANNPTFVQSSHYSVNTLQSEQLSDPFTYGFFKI

`Cc1cccc(/C=N/Nc2cc(N3CCOCC3)nc(OCCc3ccccn3)n2)c1` [Compound 50, N-(3-Methyl-benzylidene)-N′-[6-morpholin-4-yl-2-(2-pyridin-2-yl-ethoxy)-pyrimidin-4-yl]-hydrazine]: the “kinetics of p50 nuclear entry” value in experiment [1] (5 minutes to 1 hr post-stimulation) is recorded as “no effect”. The “nuclear p50 protein levels” value in experiment [1] (3 hours) was “small decrease”. The “LPS/IFNγ induced phosphorylation of p105” value in experiment [2] is given as “no effect”. Also, the “levels of nuclear c-Rel” value in experiment [3] was “reduced”. The “reduction in the levels of nuclear c-Rel” value in experiment [4] was 40-50%.
